Tests used:
[1] = system: moderate to severe pain following dental surgery; assay: Dose ranging clinical study of morphine 60 mg with NTX 0.1, 0.01 or 0.001 mg, and NTX alone; format: in vivo, human; conditions: NTX 0.01 mg alone, among treatment groups
Description: In a dose ranging study, doses of morphine sulfate (60 mg) in combination with naltrexone hydrochloride (0.1 mg, 0.01 mg, or 0.001 mg) were administered for moderate to severe pain in patients following dental surgery. This study was performed to investigate the analgesic efficacy (onset, peak, duration, and total effect) of morphine alone, naltrexone alone, three different doses of naltrexone in combination with morphine and placebo.
The 300 subject study was designed with six treatment groups: A) placebo (50 pts); B) morphine 60 mg (50 pts); C) naltrexone 0.01 mg (50 pts); D) morphine 60 mg and naltrexone 0.1 mg (50 pts); E) morphine 60 mg and naltrexone 0.01 mg (50 pts); F) morphine 60 mg and naltrexone 0.001 mg (50 pts). In this study, in the treatment of moderate to severe pain following extraction of 3 or 4 full or partial bony impacted third molars, a single oral dose of one of the treatments was administered when the patient was suffering moderate to severe postoperative pain. The observation period for efficacy was 8 hours post treatment, and for safety was 24 hours post treatment.
The efficacy and safety evaluations included pain intensity, pain relief, global pain evaluation, evaluation of time to meaningful pain relief (stopwatch), visual analog scale (VAS), and adverse event assessments. For the data analysis, certain pain parameters were computed as generally described above.

[2] = system: excitatory opioid receptors; conditions: mice, antagonist on the order of ng/kg with morphine or similar opioid agonists; cited from earlier work
[3] = Binding of drug in solution to pharmaceutical excipients
postsurgical patients = conditions: PCA/IV morphine with low dose IV antagonist; cited from earlier work
[4] = system: moderate to severe pain following dental surgery; assay: Dose ranging clinical study of morphine 30, 60, 90 mg alone or with NTX 0.1 mg; format: in vivo, human; conditions: 30 mg, 60 mg and 90 mg MS alone compared with each other
Description: In this dose ranging study, doses of morphine sulfate (30 mg, 60 mg, and 90 mg) in combination with naltrexone hydrochloride (0.1 mg) were administered for moderate to severe pain in male patients following dental surgery. This study was performed to investigate the efficacy of combinations of different doses of morphine with naltrexone 0.1 mg, relative to placebo and relative to morphine alone, to evaluate the dose-response effects of morphine when administered alone and when coadministered with naltrexone 0.1 mg, and to examine the consistency of effect of naltrexone 0.1 mg across different doses of morphine, when coadministered with morphine.
The 210 subject study was designed with seven treatment groups: A) placebo (30 pts); B) morphine 30 mg (30 pts); C) morphine 60 mg (30 pts); D) morphine 90 mg (30 pts); E) morphine 30 mg and naltrexone 0.1 mg (30 pts); F) morphine 60 mg and naltrexone 0.1 mg (30 pts); G) morphine 90 mg and naltrexone 0.1 mg (30 pts). In this study, in the treatment of moderate to severe pain following extraction of 3 or 4 full or partial bony impacted third molars, a single oral dose of one of the treatments was administered when the patient was suffering moderate to severe postoperative pain. The observation period for efficacy was 8 hours post treatment and for safety was 24 hours post treatment. […]

[5] = excipients of Example 10, aqueous environment
[6] = excipients of Example 12, aqueous environment

In the case of `Cl.O=C1CC[C@@]2(O)[C@H]3Cc4ccc(O)c5c4[C@@]2(CCN3CC2CC2)[C@H]1O5` [naltrexone hydrochloride, 17-cyclopropylmethyl-4,5α-epoxy-3,14-dihydroxymorphinan-6-one hydrochloride], the global evaluation scores [1] is reported as “highest number of subjects who had “poor” global evaluation scores”, the “mean 4 hour Sum of Pain Intensity Difference (SPID) scores” value [1] is reported as “lowest” and the “mean Total Pain Relief scores” value [1] is reported as “lowest”. The “effect on analgesic potency of opioid agonists” value [2] was “markedly enhancing the analgesic potency of opioid agonists”, the “fraction of drug bound by croscarmellose sodium” value ([3]; drug in solution mixed with croscarmellose sodium in suspension) was “more than 90%” and the “binding by the excipients used” value [3, 5] was “not to bind”. For the same compound, the “binding by the excipients used” value [3, 6] was “not to bind”.

For `C=CCN1CC[C@]23c4c5ccc(O)c4O[C@H]2C(=O)CC[C@@]3(O)[C@H]1C5` [naloxone, 4,5-epoxy-3,14-dihydroxy-17-(2-prophenyl)morphinan-6-one], the “effect on potency of morphine” value (postsurgical patients) is listed as “markedly enhanced potency of morphine”.

For `C=C1CC[C@@]2(O)[C@H]3Cc4ccc(O)c5c4[C@@]2(CCN3CC2CC2)[C@H]1O5` [nalmefene, 6-methylene-6-desoxy-N-cyclopropyl-methyl-14-hydroxydihydroxy-dihydronormorphine], the “effect on potency of morphine” value (postsurgical patients) is given as “markedly enhanced potency of morphine”.

In the case of `CN1CC[C@]23c4c5ccc(O)c4O[C@H]2[C@@H](O)C=C[C@H]3[C@H]1C5.O=S(=O)(O)O` [MS, morphine sulfate], the “mean SPID scores” value [4] is reported as “comparable”, the “mean Total Pain Relief scores” value [4] is reported as “comparable” and the “binding to croscarmellose sodium” value ([3]; croscarmellose sodium) is reported as “also bound to this excipient”. The “binding by the excipients used” value [3, 5] was “not to bind” and the “binding by the excipients used” value [3, 6] was “not to bind”.
